Data reported in patent publication US12091411B2, “IRAK degraders and uses thereof” (Kymera Therapeutics, Inc., priority 2022, dated 2024).
Like-named read-outs stand apart in the source and are kept apart here.

Biological target: T1, IRAK4 (Homo sapiens, UniProt Q9NWZ3)
T1 construct: Degradation of IRAK4 in OCI-LY10 was quantitatively measured using Meso Scale Discovery technology; endogenous in cells; host or cells: OCI-LY10
T1 sequence (Q9NWZ3 1-460): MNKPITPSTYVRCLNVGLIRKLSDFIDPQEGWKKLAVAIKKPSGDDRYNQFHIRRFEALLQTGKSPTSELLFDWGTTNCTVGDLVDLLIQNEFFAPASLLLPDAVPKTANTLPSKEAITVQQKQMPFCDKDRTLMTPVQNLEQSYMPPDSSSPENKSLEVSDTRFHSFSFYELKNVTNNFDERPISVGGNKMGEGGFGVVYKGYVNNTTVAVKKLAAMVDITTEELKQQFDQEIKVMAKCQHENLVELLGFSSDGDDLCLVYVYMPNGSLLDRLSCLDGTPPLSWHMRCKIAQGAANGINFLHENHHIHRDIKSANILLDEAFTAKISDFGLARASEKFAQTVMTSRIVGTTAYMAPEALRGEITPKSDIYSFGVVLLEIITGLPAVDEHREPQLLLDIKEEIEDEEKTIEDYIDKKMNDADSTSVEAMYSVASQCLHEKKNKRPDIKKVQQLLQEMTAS
Assay: IRAK4 MSD Degradation in OCI-LY10
Format: cell-based
Settings: OCI-LY10 cells, MSD
Procedure: Degradation of IRAK4 in OCI-LY10 was quantitatively measured using Meso Scale Discovery technology. […] Compounds were then added to the assay plates with a final top concentration of 1 to 10 μM in a 1:3 dilution series with total of 8 doses. The assay plates were then incubated for 4 to 24 hours at 37° C. under 5% CO2. […] To prepare MSD assay plates (Meso Scale Discovery Catalog number L15XA-3), the plates were coated with 2 μg/mL capture antibody (mouse Anti-IRAK4 antibody [2H9], ab119942) in PBS, at 40 μL/well. […] Cell lysates were then added to MSD assay plates and the plates were incubated at room temperature for 1 hour. The plates were then washed 3 times with 150 μL/well TBST buffer and 25 μL/well primary detection antibody (rabbit Anti-IRAK4 antibody [Y279], from Abcam. Catalog number ab32511, 1 μg/mL). The assay plates were then incubated at room temperature for 1 hour, washed 3 times with 150 μL/well TBST buffer and 25 μL/well secondary detection antibody, SULFO-TAG anti-rabbit antibody were added (anti-rabbit antibody from Meso Scale Discovery, Catalog number R32AB-1, 1 μg/mL). The assay plates were then incubated at room temperature for 1 hour, washed 3 times with 150 μL/well TBST buffer, and 150 μL/well MSD reading buffer (Meso Scale Discovery catalog number R92TC-2) was added. The plates were then analyzed by a MSD reader (Meso Scale Discovery, Model Quick Plex SQ 120). The data was then analyzed by software Prism 7.0 from GraphPad and the dose-depended IRAK4 degradation were fit using a three-parameter logistic equation to calculate DC50.
The letter codes for IRAK4 DC50 include: A (<0.01 μM); B (0.01 to <0.1 μM); C (0.1 to 0.2 μM); and D (>0.2 μM or not tested).

[1] = 4 hrs incubation, read-out: IRAK4 degradation in OCI-LY10 at 4 hrs: DC50
[2] = 24 hrs incubation, read-out: IRAK4 degradation in OCI-LY10 at 24 hrs: DC50

DC50 [1] [nM]	DC50 [2] [nM]	SMILES
10 to 100	< 10	C[C@@H]1CN(c2ccn3ncc(C(=O)Nc4cn([C@H]5CC[C@H](CN(C)C6CCN(c7cccc8c7n(C)c(=O)n8C7CCC(=O)NC7=O)CC6)CC5)nc4C(F)F)c3n2)C[C@H](C)O1 (stereo partly drawn) [I-442]
> 200	> 200	Cn1c(=O)n(C2CCC(=O)NC2=O)c2cccc([C@H]3CCN(C[C@H]4CC[C@H](n5cc6cc(NC(=O)c7cccc(C#N)n7)c(C(C)(C)O)cc6n5)CC4)C[C@H]3F)c21 (stereo partly drawn) [I-651]
> 200	> 200	Cn1c(=O)n(C2CCC(=O)NC2=O)c2cccc([C@H]3CCN(C[C@H]4CC[C@H](n5cc6cc(NC(=O)c7cccc(C(F)F)n7)ncc6n5)CC4)C[C@H]3F)c21 (stereo partly drawn) [I-643]
> 200	> 200	Cn1c(=O)n(C2CCC(=O)NC2=O)c2cccc(N3CC(F)(F)C34CN(C[C@H]3CC[C@H](n5cc6cc(NC(=O)c7cccc(C(F)(F)F)n7)ccc6n5)CC3)C4)c21 (stereo partly drawn) [I-499]
> 200	> 200	CN(C[C@H]1CC[C@H](n2cc3cc(NC(=O)c4cccc(C(F)(F)F)n4)c(S(C)(=N)=O)cc3n2)CC1)C1CCN(c2cccc3c2n(C)c(=O)n3C2CCC(=O)NC2=O)CC1F (stereo partly drawn) [I-560]
> 200	10 to 100	Cn1c(=O)n(C2CCC(=O)NC2=O)c2cccc(N3CC4(CCN(C[C@H]5CC[C@H](n6cc7cc(NC(=O)c8cccc(C(F)(F)F)n8)ncc7n6)CC5)CC4(F)F)C3)c21 (stereo partly drawn) [I-668]
> 200	> 200	Cn1c(=O)n(C2CCC(=O)NC2=O)c2cccc(C#CCN3CCC(C[C@H]4CC[C@H](n5cc(NC(=O)c6cnn7ccc(N8C[C@H]9C[C@@H]8CO9)nc67)c(C(F)F)n5)CC4)C(F)(F)C3)c21 (stereo partly drawn) [I-375]
> 200	< 10	Cn1c(=O)n(C2CCC(=O)NC2=O)c2cccc(C3CCN(C[C@H]4CC[C@H](n5cc6cc(NC(=O)c7cccc(C(F)(F)F)n7)c(C#N)cc6n5)CC4)CC3(F)F)c21 (stereo partly drawn) [I-705]
> 200	> 200	Cn1c(=O)n(C2CCC(=O)NC2=O)c2cccc(C3CCN(C[C@H]4CC[C@H](n5cc6cc(NC(=O)c7cccc(C(F)(F)F)n7)ccc6n5)CC4)CC3(F)F)c21 (stereo partly drawn) [I-445]
> 200	10 to 100	CN(C[C@H]1CC[C@H](n2cc3cc(NC(=O)c4cccc(C(F)(F)F)n4)ccc3n2)CC1)C1CCN(c2cccc3c2n(C)c(=O)n3C2CCC(=O)NC2=O)CC1F (stereo partly drawn) [I-555]
> 200	> 200	Cn1c(=O)n(C2CCC(=O)NC2=O)c2cccc(C[C@H]3CN(Cc4ccc(-n5cc(NC(=O)c6cnn7ccc(N8C[C@H]9C[C@@H]8CO9)nc67)c(C(F)F)n5)cc4)CCO3)c21 (stereo partly drawn) [I-384]
> 200	< 10	Cn1c(=O)n(C2CCC(=O)NC2=O)c2cccc(N3CCN(C4CCN(C[C@H]5CC[C@H](n6cc(NC(=O)c7cnn8ccc(N9C[C@H]%10C[C@@H]9CO%10)nc78)c(C(F)F)n6)CC5)CC4(F)F)CC3)c21 (stereo partly drawn) [I-701]
> 200	> 200	Cc1cccc(C(=O)Nc2ccc3nn([C@H]4CC[C@H](CN5CC[C@@H](c6cccc7c6n(C)c(=O)n7C6CCC(=O)NC6=O)[C@@H](F)C5)CC4)cc3c2)n1 (stereo partly drawn) [I-620]
> 200	> 200	Cc1cccc(C(=O)Nc2cc3cn([C@H]4CC[C@H](CN5CC[C@H](c6cccc7c6n(C)c(=O)n7C6CCC(=O)NC6=O)[C@H](F)C5)CC4)nc3cc2C(C)(C)O)n1 (stereo partly drawn) [I-647]
> 200	< 10	Cn1c(=O)n(C2CCC(=O)NC2=O)c2ccc(F)c(N3CC(CN4CCN(C[C@H]5CC[C@H](n6cc(NC(=O)c7cnn8ccc(N9C[C@H]%10C[C@@H]9CO%10)nc78)c(C(F)F)n6)CC5)CC4)C3)c21 (stereo partly drawn) [I-676]
> 200	> 200	Cn1c(=O)n(C2CCC(=O)NC2=O)c2cccc(N3CCN([C@H]4CCN(C[C@H]5CC[C@H](n6cc(NC(=O)c7cnn8ccc(N9CC%10(COC%10)C9)nc78)c(C(F)F)n6)CC5)CC4(F)F)CC3)c21 (stereo partly drawn) [I-747]

Continued, molecule first:

SMILES	DC50 [1] [nM]	DC50 [2] [nM]
O=C1CCC(c2cccc3c(C#CCN4CCN(C[C@H]5CC[C@@H](n6cc(NC(=O)c7cnn8ccc(N9C[C@H]%10C[C@@H]9CO%10)nc78)c(C(F)F)n6)CC5)CC4)cccc23)C(=O)N1 (stereo partly drawn) [I-250]	> 200	10 to 100
CC1CCN(c2ccn3ncc(C(=O)Nc4cn([C@H]5CC[C@H](CN(C)C6CCN(c7cccc8c7n(C)c(=O)n8C7CCC(=O)NC7=O)CC6)CC5)nc4C(F)F)c3n2)CC1 (stereo partly drawn) [I-271]	> 200	< 10
COc1cc2nn([C@H]3CC[C@H](CN4CCC5(CC4)CCN(c4ccc(N6CCC(=O)NC6=O)cc4)CC5)CC3)cc2cc1NC(=O)c1cncc(C#N)c1 [I-96]	> 200	> 200
Cn1c(=O)n(C2CCC(=O)NC2=O)c2cccc(C#CCN3CCN(C[C@H]4CC[C@H](n5cc(NC(=O)c6cnn7ccc(C8CCOCC8)nc67)c(C(F)F)n5)CC4)CC3)c21 (stereo partly drawn) [I-298]	> 200	< 10
Cc1ccc(-c2nn([C@H]3CC[C@H](CN4CCC(OCC#Cc5cccc6c5n(C)c(=O)n6C5CCC(=O)NC5=O)CC4)CC3)cc2NC(=O)c2cnn3cccnc23)cc1 (stereo partly drawn) [I-172]	> 200	10 to 100
Cn1c(=O)n(C2CCC(=O)NC2=O)c2cccc(N3CCC4(CCN(C[C@H]5CC[C@H](c6nc7cc(C(C)(C)O)c(NC(=O)c8cncc(C#N)c8)cc7s6)CC5)CC4)CC3)c21 (stereo partly drawn) [I-97]	< 10	> 200
Cn1c(=O)n(C2CCC(=O)NC2=O)c2cccc(C#CCN3CCN(C[C@H]4CC[C@H](n5cc(NC(=O)c6cnn7ccc(N8CC9CC(C8)O9)nc67)c(C(F)F)n5)CC4)CC3)c21 (stereo partly drawn) [I-337]	> 200	< 10
Cn1c(=O)n(C2CCC(=O)NC2=O)c2cccc(N3CCC(N(C[C@H]4CC[C@H](n5cc(NC(=O)c6cnn7cccnc67)c(C(F)F)n5)CC4)C(F)(F)F)CC3)c21 (stereo partly drawn) [I-368]	> 200	> 200
Cn1c(=O)n(C2CCC(=O)NC2=O)c2cccc(C#CCN3CCN(C[C@H]4CC[C@H](n5cc(NC(=O)c6cnn7ccc(N8CC9(CCOCC9)C8)nc67)c(C(F)F)n5)CC4)CC3)c21 (stereo partly drawn) [I-316]	> 200	10 to 100
COc1cc2nn([C@H]3CC[C@H](CN4CCC5(CC4)CCN(c4cccc6c4n(C)c(=O)n6C4CCC(=O)NC4=O)CC5)CC3)cc2cc1NC(=O)c1cncc(C(F)(F)F)n1 (stereo partly drawn) [I-155]	< 10	> 200
Cn1c(=O)n(C2CCC(=O)NC2=O)c2cccc(C#CCN3CCN(C[C@H]4CC[C@H](n5cc(NC(=O)c6cnn7ccc(C8C[C@H]9C[C@@H]8CO9)nc67)c(C(F)F)n5)CC4)CC3)c21 (stereo partly drawn) [I-105]	> 200	> 200
Cn1c(=O)n(C2CCC(=O)NC2=O)c2cccc(C#CCN3CCN(C[C@H]4CC[C@H](n5cc(NC(=O)c6cnn7ccc(N8CCCC8(C)C)nc67)c(C(F)F)n5)CC4)CC3)c21 (stereo partly drawn) [I-221]	> 200	10 to 100
CN1CCOCC1c1ccn2ncc(C(=O)Nc3cn([C@H]4CC[C@H](CN5CCC(OCC#Cc6cccc7c6n(C)c(=O)n7C6CCC(=O)NC6=O)CC5)CC4)nc3C(F)F)c2n1 (stereo partly drawn) [I-311]	> 200	> 200
Cn1c(=O)n(C2CCC(=O)NC2=O)c2cccc(C#CCOC3CCN(C[C@H]4CC[C@H](n5cc(NC(=O)c6cccc(C(F)(F)F)n6)c(C(F)F)n5)CC4)CC3)c21 (stereo partly drawn) [I-210]	> 200	> 200
COc1ccc2c(c1C#CCOC1CCN(C[C@H]3CC[C@H](n4cc(NC(=O)c5cnn6ccc(N7C[C@H]8C[C@@H]7CO8)nc56)c(C(F)F)n4)CC3)CC1)n(C)c(=O)n2C1CCC(=O)NC1=O (stereo partly drawn) [I-2]	< 10	> 200
O=C1CCN(c2cncc3cc(C4CCN(C5CCN(C[C@H]6CC[C@H](n7cc(NC(=O)c8cnn9ccc(N%10C[C@H]%11C[C@@H]%10CO%11)nc89)c(C(F)F)n7)CC6)CC5)CC4)ccc23)C(=O)N1 [I-75]	< 10	> 200
Cn1c(=O)n(C2CCC(=O)NC2=O)c2cccc(C#CCN3CCN(C[C@H]4CC[C@H](n5cc(NC(=O)c6cnn7ccc(N8CCC8)nc67)c(C(F)F)n5)CC4)CC3)c21 (stereo partly drawn) [I-106]	< 10	> 200
